Results taken from the supplement of paper PMC10307832.

Key:
Test in all cases: relative viability (nuclei count vs DMSO), 5 days (fraction); higher = more cells survive
[1] = compound: C[C@@H](N)c1ccc(C(=O)Nc2ccnc3[nH]ccc23)cc1 + COc1cccc2cc(-c3nc([C@H]4CC[C@H](C(=O)O)CC4)n4ncnc(N)c34)[nH]c12 [OSI-027] (partner 0.5 µM)
Method in brief: (§1)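 Five library-drug doses in √10 steps were combined with a fixed anchor-drug dose, or a single drug was given alone, by pin tool to lung cancer cell lines in 1536-well plates the day after seeding. Nuclei were stained and counted after 5 days. Relative viability is the nuclei count in treated wells over that in vehicle wells, taken as the median of duplicate plates.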

[2] = compound: C1CNCCC1C2=CC(=NN2)C3=CC=NC=C3 + COc1cccc2cc(-c3nc([C@H]4CC[C@H](C(=O)O)CC4)n4ncnc(N)c34)[nH]c12 [OSI-027] (partner 0.5 µM)
Method in brief: as §1

[3] = compound: C1CNCCC1C2=CC(=NN2)C3=CC=NC=C3 + O=C(CCCCCCC(=O)Nc1ccccc1)NO [Vorinostat] (partner 1 µM)
Method in brief: as §1

[4] = compound: O[C@H]1CC[C@H](Nc2ncc3nc(Nc4c(F)cc(F)cc4F)n([C@H]4CCOC4)c3n2)CC1 [Tanzisertib] + Cc1nc(NC(=O)N2CCC[C@H]2C(N)=O)sc1-c1ccnc(C(C)(C)C(F)(F)F)c1 [Alpelisib] (partner 2 µM)
Method in brief: as §1

Cell Line	relative viability ([1]; first compound 0.04 µM)	relative viability ([1]; first compound 0.1265 µM)	relative viability ([1]; first compound 0.4 µM)	relative viability ([1]; first compound 1.265 µM)	relative viability ([1]; first compound 4 µM)	relative viability ([2]; first compound 0.08 µM)	relative viability ([2]; first compound 0.8 µM)	relative viability ([2]; first compound 2.53 µM)	relative viability ([2]; first compound 8 µM)	relative viability ([3]; first compound 0.08 µM)	relative viability ([3]; first compound 0.8 µM)	relative viability ([3]; first compound 2.53 µM)	relative viability ([3]; first compound 8 µM)	relative viability ([4]; first compound 0.08 µM)	relative viability ([4]; first compound 0.253 µM)	relative viability ([4]; first compound 0.8 µM)	relative viability ([4]; first compound 2.53 µM)	relative viability ([4]; first compound 8 µM)
NCI-H1355	0.459	0.415	0.432	0.343	0.379	0.446	0.372	0.472	0.476	0.637	0.629	0.788	0.637	0.838	0.871	0.886	0.864	0.881
NCI-H1666	0.917	0.979	0.935	1.14	1.06	0.871	0.967	0.794	0.878	0.964	1.06	1.07	1.08	0.935	1.01	1.06	1.1	1.01
EPLC-272H	0.285	0.308	0.308	0.244	0.293	0.279	0.348	0.318	0.292	0.618	0.501	0.452	0.468	0.998	0.942	0.951	1.01	0.971
NCI-H1651	0.901	0.817	0.888	1.05	0.802	0.649	0.767	0.827	0.76	0.512	0.581	0.577	0.589	1.17	0.934	1.01	0.988	0.817
HCC-44	0.37	0.433	0.644	0.19	0.482	0.47	0.71	0.627	0.787	1.11	1.2	0.998	1.11	0.839	0.834	0.852	0.768	0.75
SW 1573	0.694	0.604	0.69	0.485	0.485		0.666	0.727	0.752		0.642	1.01	0.967	0.823	0.656	0.735	0.81	0.578
PC-3 [JPC-3]	0.789	0.76	0.783	0.775	0.792	0.827	0.776	0.835	0.705	0.94	0.797	0.881	0.834	1.05	1.07	1.12	1.03	0.972
LOU-NH91	0.626	0.667	0.688	0.601	0.591	0.696	0.74	0.796	0.727	0.925	1.02	1.05	0.955	0.755	0.706	0.716	0.694	0.549
PC-14	0.846	0.968	0.904	0.712	0.625	0.722	1.12	0.986	0.822	0.536	0.712	0.897	0.7	0.942	0.947	0.943	0.873	0.57
NCI-H2087	1.02	0.721	0.924		0.613	0.471	0.616	0.619	0.573	0.682	0.8	0.738	0.684	1.27	1.22	1.24	1.11	1.32
LU99A		0.328	0.292	0.277	0.316	0.292	0.291	0.331	0.304	0.465	0.45	0.528	0.554	0.549	0.519	0.521	0.503	0.456
BEN	0.293	0.307	0.3	0.314	0.284	0.303	0.295	0.233	0.33	0.489	0.611	0.635	0.57	0.978	1.04	1.08	0.955	1.01
SK-LU-1	0.37	0.356	0.365	0.385	0.359	0.386	0.346	0.346	0.342	0.783	0.766	0.857	0.729	1.15	0.976	1.12	1.23	0.912
NCI-H1975	0.799	0.876	0.666	0.673	0.533	0.703	0.778	0.774	0.777	0.74	0.758	0.702	0.685	0.676	0.715	0.719	0.653	0.585
RERF-LC-KJ	0.555	0.628	0.591	0.672	0.6	0.537	0.521	0.581	0.576	0.553	0.727	0.862	0.712	0.819	0.754	0.918	0.777	0.719
NCI-H441	0.631	0.807	0.62		0.701	0.536	0.769	0.736	0.867	0.593	0.944	0.783	0.77	0.925	0.69	0.674	0.713	0.635
LCLC-103H	0.416	0.453	0.438	0.463	0.432	0.432	0.485	0.447	0.457	0.822	0.752	0.831	0.757	0.983	0.94	0.965	0.981	0.923
HCC-78	0.54	0.389	0.476	0.388	0.544	0.344	0.359	0.354	0.383	0.404		0.441	0.475	0.322	0.304	0.309	0.372	0.34
